Results as given in EP4806890A1, “CRYSTALLINE COMPOUND OR BASIC SALT THEREOF, PREPARATION METHOD THEREFOR, AND USE THEREOF” (Abbisko Therapeutics Co., Ltd., priority 2023, dated 2025).

Key:
[1] = Later pharmaceutical research on the trifluoroacetate freeze-dried amorphous compound of WO2019149183A1 (solid-state properties); assay type: physicochemical
PD-1/PD-L1 = PD-1/PD-L1 (Homo sapiens, UniProt Q9NZQ7); conditions: statement of the background, WO2019149183A1; cited from earlier work
T cells = conditions: statement of the background, WO2019149183A1; cited from earlier work
[2] = Solubility determination (equilibrium solubility, 24 hrs stirring at room temperature, HPLC); assay type: physicochemical; conditions: for Equilibrium solubility: target concentration 2000 µg/mL, 24 hrs; for pH24 hrs: pH of the filtrate after 24 hrs
Method: (§1) The stability and solubility of the crystalline free form of the compound of formula (I) or the basic salt thereof of the present application were determined by HPLC.
The desired amount of the compound was weighed into a glass vial, and the desired amount of a vehicle was added. A stir bar was added to the vial, and the mixture was stirred at room temperature for 24 hrs. After 24 hrs, the appearance of the sample was observed. An appropriate amount of the sample was filtered through a PVDF 0.45 µm filter membrane, and the filtrate was collected. The pH value of the filtrate was determined, and the sample was diluted with MeOH. The diluted sample was injected into an HPLC system to determine the concentration.

[3] = Stability determination (thermal stability and photostability, HPLC purity, appearance, XRPD); assay type: physicochemical; conditions: for XRPD: crystalline form found
Method: as §1
An appropriate amount of the sample was placed in a vial and left to stand at 50 °C, 80 °C or 50 °C & 75% RH (open) for 7 days to evaluate thermal stability. An appropriate amount of the sample was placed in a transparent vial, […] evaluation under conditions of overall near-ultraviolet energy of 1.2 * 10^6 Lux·hr and no less than 200 W·hr/m2.

[4] = Hygroscopic behavior test by dynamic vapor sorption (DVS); assay type: physicochemical; conditions: for hygroscopicity (in words): DVS, 25 °C
Source text: The experimental method of characterizing the crystalline free form of the compound of formula (I) or the basic salt thereof using dynamic vapor sorption (DVS) is as follows: a small amount of the crystalline sample was placed in a precision sample tray that was compatible with the instrument; after the sample was loaded, the sample tray was placed into the instrument for analysis. In this patent, the instruments used for dynamic vapor sorption were all the DVS Intrinsic plus model, and the following experimental parameters were set: nitrogen was used as the carrier gas, a constant temperature of 25 °C was set, the rate of mass percentage change over a unit of time (dm/dt) = 0.002%/min was used as a criterion for determining if equilibrium is reached, and the program humidity change cycle was set to 50-95-0-95-50% RH; within the range of 0-90% RH, a change of 10% RH was taken as a step, and within the range of 90% RH-95% RH, a change of 5% RH was taken as a step.
In the present invention, the hygroscopic weight increases (hygroscopic weight increase/weight before hygroscopy * 100%) of various crystalline forms under various relative humidity conditions were determined using the dynamic vapor sorption method, and the hygroscopicity of different crystalline compounds was evaluated.

[5] = pH 4.7, 50 mM acetic acid buffer
[6] = pH 6.8, 50 mM phosphoric acid buffer
[7] = Aluminum foil light exposure control, 9.2 days
[8] = Transparent light exposure, 9.2 days

Chain of PD-1/PD-L1 (Q9NZQ7 19-238 limits assumed): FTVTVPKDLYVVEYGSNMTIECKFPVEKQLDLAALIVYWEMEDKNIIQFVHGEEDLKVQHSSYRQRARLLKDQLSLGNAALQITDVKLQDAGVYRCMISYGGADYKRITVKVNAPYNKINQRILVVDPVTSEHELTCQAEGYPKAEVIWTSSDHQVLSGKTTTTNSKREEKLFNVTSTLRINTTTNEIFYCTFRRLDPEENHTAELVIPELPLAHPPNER

Compound: Cc1c(NC(=O)c2cc(C3CC3)c(CN3CCCC[C@H]3C(=O)O)cn2)cccc1-c1cccc(NC(=O)c2cc(C3CC3)c(CN3CCCC[C@H]3C(=O)O)cn2)c1C [compound of formula (I), (2S,2'S)-1,1'-(((((2,2'-dimethyl-[1,1'-biphenyl]-3,3'-diyl)bis(azanediyl))bis(carbonyl))bis(4-cyclopropylpyridine-6,3-diyl))bis(methylene))bis(piperidine-2-carboxylic acid)]
- hygroscopicity (in words) [1]: very hygroscopic
- solubility (in words) [1]: poor solubility
- inhibitory effect on the protein interaction of PD-1/PD-L1 (PD-1/PD-L1): strong inhibitory effect
- activation of T cells at the cellular level (T cells): enhance or restore the activation of T cells

Compound: Cc1c(NC(=O)c2cc(C3CC3)c(CN3CCCC[C@H]3C(=O)O)cn2)cccc1-c1cccc(NC(=O)c2cc(C3CC3)c(CN3CCCC[C@H]3C(=O)O)cn2)c1C [free-form crystalline form F, (2S,2'S)-1,1'-(((((2,2'-dimethyl-[1,1'-biphenyl]-3,3'-diyl)bis(azanediyl))bis(carbonyl))bis(4-cyclopropylpyridine-6,3-diyl))bis(methylene))bis(piperidine-2-carboxylic acid)]
- Equilibrium solubility ([2]; FaSSGF): 117.15 µg/mL
- Equilibrium solubility ([2]; FaSSIF): 306.56 µg/mL
- Equilibrium solubility ([2]; FeSSIF): 1723.16 µg/mL
- Equilibrium solubility ([2]; Water, room temperature): 69.47 µg/mL
- Equilibrium solubility ([2]; pH 1.2, HCl 100 mM): 244.49 µg/mL
- Equilibrium solubility [2, 5]: 67.33 µg/mL
- Equilibrium solubility [2, 6]: 61.01 µg/mL
- pH24 hrs ([2]; FaSSGF): 1.58
- pH24 hrs ([2]; FaSSIF): 6.42
- pH24 hrs ([2]; FeSSIF): 4.99
- pH24 hrs ([2]; Water): 5.52
- pH24 hrs ([2]; pH 1.2, HCl 100 mM): 1.15
- pH24 hrs [2, 5]: 4.68
- pH24 hrs [2, 6]: 6.93
- solubility (in words) ([2]; various pH conditions, buffers and biological medium solutions): extremely significantly improved solubility
- physical and chemical stability (in words) ([3]; 50 °C, 50 °C/75% RH (open), 80 °C for 7 days and photostress for 10 days): extremely high physical and chemical stability
- Appearance ([3]; 50 °C, 11 days): White powder
- Purity (%) ([3]; 50 °C, 11 days): 99.36%
- Appearance ([3]; 50 °C/75%RH, 11 days): White powder
- Purity (%) ([3]; 50 °C/75%RH, 11 days): 99.36%
- Appearance ([3]; 80 °C, 11 days): White powder
- Purity (%) ([3]; 80 °C, 11 days): 99.22%
- Appearance [3, 7]: White powder
- Purity (%) [3, 7]: 99.39%
- Appearance ([3]; Initial, 0 days): White powder
- Purity (%) ([3]; Initial, 0 days): 99.44%
- Appearance [3, 8]: White powder
- Purity (%) [3, 8]: 99.43%
- XRPD ([3]; 50 °C, 11 days): Free-form crystalline form F
- XRPD ([3]; 50 °C/75%RH, 11 days): Free-form crystalline form F
- XRPD ([3]; 80 °C, 11 days): Free-form crystalline form F
- XRPD [3, 7]: Free-form crystalline form F
- XRPD ([3]; Initial, 0 days): Free-form crystalline form F
- XRPD [3, 8]: Free-form crystalline form F
- hygroscopicity (in words) [4]: moderate hygroscopicity
- hygroscopicity (in words) ([4]; listed as crystalline form F): moderately hygroscopic
- Hygroscopic weight increase (%) ([4]; Relative humidity 0.0 % at 25 °C): 0.00%
- Hygroscopic weight increase (%) ([4]; Relative humidity 10.0 % at 25 °C): 0.18%
- Hygroscopic weight increase (%) ([4]; Relative humidity 20.0 % at 25 °C): 0.38%
- Hygroscopic weight increase (%) ([4]; Relative humidity 30.0 % at 25 °C): 0.60%
- Hygroscopic weight increase (%) ([4]; Relative humidity 40.0 % at 25 °C): 0.84%
- Hygroscopic weight increase (%) ([4]; Relative humidity 50.0 % at 25 °C): 1.14%
- Hygroscopic weight increase (%) ([4]; Relative humidity 60.0 % at 25 °C): 1.54%
- Hygroscopic weight increase (%) ([4]; Relative humidity 70.0 % at 25 °C): 2.04%
- Hygroscopic weight increase (%) ([4]; Relative humidity 80.0 % at 25 °C): 2.55%
- Hygroscopic weight increase (%) ([4]; Relative humidity 90.0 % at 25 °C): 3.28%
- crystalline form changes after DVS testing ([4]; after DVS testing): no crystalline form changes
